Source: patent US10517889B2, “Modulators of SMAD7 expression” (Ionis Pharmaceuticals, Inc., priority 2017, dated 2019)
Strand notation (5' to 3'): a small letter for the sugar, then the base; units joined by * are phosphorothioate-linked, units joined directly phosphodiester-linked; [ ] holds rarer units or linkages, { } end groups; capitals alone tell only the bases. k = constrained ethyl (cEt); [5mC] = 5-methylcytosine; d = 2'-deoxy (DNA)

These substances were tested on human SMAD7 mRNA (assay: Antisense inhibition of human SMAD7 mRNA expression in Hep3B cells by 3-10-3 cEt gapmers, 10,000 nM, electroporation (Example 2)). Details: Hep3B cells, electroporation with 10,000 nM antisense oligonucleotide, approximately 24 hours, primer probe set RTS5062, relative to untreated control cells.
Assay type: cell-based
Method in brief: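 Hep3B, 20,000 cells/well; electroporation, 10,000 nM ASO; ~24 h. Readout: SMAD7 mRNA by qRT-PCR (RTS5062), RIBOGREEN-normalised; % inhibition vs untreated.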

Substance | % inhibition of SMAD7 mRNA expression | % Inhibition
799147 (antisense kG*kT*kA*d[5mC]*d[5mC]*dT*dT*dG*dG*dG*dT*dT*dA*kT*kG*kA) [compound 799147] | 28% | –
799148 (antisense kT*kG*kG*dT*dA*d[5mC]*d[5mC]*dT*dT*dG*dG*dG*dT*kT*kA*kT) [compound 799148] | 29% | –
799149 (antisense kG*kG*kA*dT*dG*dG*dT*dA*d[5mC]*d[5mC]*dT*dT*dG*kG*kG*kT) [compound 799149] | 46% | –
799150 (antisense k[5mC]*kT*kA*dG*dG*dA*dT*dG*dG*dT*dA*d[5mC]*d[5mC]*kT*kT*kG) [compound 799150] | 22% | –
799151 (antisense kA*kG*k[5mC]*d[5mC]*dT*dA*dG*dG*dA*dT*dG*dG*dT*kA*k[5mC]*k[5mC]) [compound 799151] | 39% | –
799152 (antisense kT*kG*kT*d[5mC]*dA*dG*d[5mC]*d[5mC]*dT*dA*dG*dG*dA*kT*kG*kG) [compound 799152] | 33% | –
799153 (antisense kG*kT*kT*dA*dG*dG*dT*dG*dT*d[5mC]*dA*dG*d[5mC]*k[5mC]*kT*kA) [compound 799153] | – | 68%
799154 (antisense kA*kG*kA*dG*dT*dT*dA*dG*dG*dT*dG*dT*d[5mC]*kA*kG*k[5mC]) [compound 799154] | – | 39%
799155 (antisense kA*kG*kA*dA*dG*dA*dG*dT*dT*dA*dG*dG*dT*kG*kT*k[5mC]) [compound 799155] | – | 32%
799156 (antisense kG*kA*kA*dA*dG*dA*dA*dG*dA*dG*dT*dT*dA*kG*kG*kT) [compound 799156] | – | 37%
799157 (antisense kG*kT*kT*dG*dT*dA*dG*dA*dA*dG*dA*dA*dA*kT*kG*kA) [compound 799157] | – | 39%
799158 (antisense kT*kA*kT*dG*dA*dG*dT*dT*dG*dT*dA*dG*dA*kA*kG*kA) [compound 799158] | – | 33%
799160 (antisense kA*k[5mC]*kG*dA*dG*dT*dG*dT*dA*dT*dG*dA*dG*kT*kT*kG) [compound 799160] | – | 61%
799161 (antisense k[5mC]*kA*kT*dA*d[5mC]*dG*dA*dG*dT*dG*dT*dA*dT*kG*kA*kG) [compound 799161] | – | 29%
799162 (antisense kT*kA*kT*d[5mC]*dA*dT*dA*d[5mC]*dG*dA*dG*dT*dG*kT*kA*kT) [compound 799162] | – | 36%
799163 (antisense kA*kA*kG*dT*dA*dT*d[5mC]*dA*dT*dA*d[5mC]*dG*dA*kG*kT*kG) [compound 799163] | 45% | –
799164 (antisense kT*k[5mC]*kG*dA*dA*dG*dT*dA*dT*d[5mC]*dA*dT*dA*k[5mC]*kG*kA) [compound 799164] | 37% | –
799165 (antisense kG*kT*kG*dT*d[5mC]*dG*dA*dA*dG*dT*dA*dT*d[5mC]*kA*kT*kA) [compound 799165] | 42% | –
799166 (antisense kA*kA*k[5mC]*dA*dG*dT*dG*dT*d[5mC]*dG*dA*dA*dG*kT*kA*kT) [compound 799166] | 21% | –
799167 (antisense kA*kA*kG*dA*dA*d[5mC]*dA*dG*dT*dG*dT*d[5mC]*dG*kA*kA*kG) [compound 799167] | 58% | –
799169 (antisense kT*kT*kG*dA*dG*d[5mC]*dT*dA*dA*dG*dA*dA*d[5mC]*kA*kG*kT) [compound 799169] | 0% | –
